Data as given in the NIST ThermoML archive (doi:10.1021/je034142v).
“And” between values parts separate entries of the source, which are not always exact repeats. Equal values may be shown once.

Conditions: Liquid

C1CCCC1 [cyclopentane]
Conditions | viscosity
257.86 K, 100 kPa | 0.6878 mPa·s
257.87 K, 100 kPa | 0.6871 mPa·s
258.01 K, 100 kPa | 0.6851 mPa·s
262.93 K, 100 kPa | 0.6393 mPa·s and 0.6392 mPa·s
262.93 K, 3100 kPa | 0.6574 mPa·s
262.93 K, 5600 kPa | 0.6719 mPa·s
262.93 K, 7900 kPa | 0.6858 mPa·s
262.93 K, 10100 kPa | 0.6987 mPa·s
262.93 K, 25800 kPa | 0.795 mPa·s
262.93 K, 50800 kPa | 0.9583 mPa·s
262.93 K, 75700 kPa | 1.137 mPa·s
262.93 K, 100700 kPa | 1.333 mPa·s
262.93 K, 125800 kPa | 1.546 mPa·s
262.93 K, 150800 kPa | 1.782 mPa·s
262.93 K, 175800 kPa | 2.04 mPa·s
262.93 K, 200800 kPa | 2.322 mPa·s
262.93 K, 225900 kPa | 2.629 mPa·s
262.93 K, 250900 kPa | 2.967 mPa·s
262.93 K, 275800 kPa | 3.333 mPa·s
262.93 K, 300600 kPa | 3.725 mPa·s
262.99 K, 100 kPa | 0.6384 mPa·s and 0.6388 mPa·s
262.99 K, 3100 kPa | 0.6562 mPa·s
262.99 K, 5600 kPa | 0.6709 mPa·s
262.99 K, 8100 kPa | 0.6858 mPa·s
262.99 K, 10800 kPa | 0.7025 mPa·s
262.99 K, 25800 kPa | 0.7943 mPa·s
262.99 K, 50800 kPa | 0.9576 mPa·s
262.99 K, 75700 kPa | 1.136 mPa·s
262.99 K, 100500 kPa | 1.33 mPa·s
262.99 K, 125500 kPa | 1.543 mPa·s
262.99 K, 150500 kPa | 1.778 mPa·s
262.99 K, 175500 kPa | 2.032 mPa·s
262.99 K, 200200 kPa | 2.307 mPa·s
263.03 K, 100 kPa | 0.6386 mPa·s and 0.639 mPa·s
263.03 K, 10600 kPa | 0.7005 mPa·s
263.03 K, 20600 kPa | 0.7608 mPa·s
263.03 K, 30600 kPa | 0.8231 mPa·s
263.03 K, 40500 kPa | 0.8873 mPa·s
263.03 K, 50500 kPa | 0.9555 mPa·s
263.03 K, 60500 kPa | 1.024 mPa·s
263.03 K, 70500 kPa | 1.095 mPa·s
263.03 K, 80600 kPa | 1.171 mPa·s
263.03 K, 90400 kPa | 1.246 mPa·s
263.03 K, 100400 kPa | 1.327 mPa·s
263.03 K, 110500 kPa | 1.41 mPa·s
263.03 K, 120500 kPa | 1.496 mPa·s
263.03 K, 130500 kPa | 1.585 mPa·s
263.03 K, 140400 kPa | 1.677 mPa·s
263.03 K, 150400 kPa | 1.774 mPa·s
263.03 K, 160500 kPa | 1.874 mPa·s
263.03 K, 170500 kPa | 1.977 mPa·s
263.03 K, 180400 kPa | 2.083 mPa·s
263.03 K, 190300 kPa | 2.193 mPa·s
263.03 K, 200200 kPa | 2.27 mPa·s
268.01 K, 100 kPa | 0.6016 mPa·s and 0.5994 mPa·s
268.01 K, 3000 kPa | 0.6145 mPa·s
268.01 K, 5500 kPa | 0.6285 mPa·s
268.01 K, 8100 kPa | 0.6428 mPa·s
268.01 K, 10600 kPa | 0.6569 mPa·s
268.01 K, 25900 kPa | 0.745 mPa·s
268.01 K, 50900 kPa | 0.8969 mPa·s
268.01 K, 75900 kPa | 1.065 mPa·s
268.01 K, 100700 kPa | 1.243 mPa·s
268.01 K, 125700 kPa | 1.44 mPa·s
268.01 K, 150600 kPa | 1.657 mPa·s
268.01 K, 175700 kPa | 1.896 mPa·s
268.01 K, 200700 kPa | 2.151 mPa·s
268.01 K, 225600 kPa | 2.432 mPa·s
268.01 K, 250800 kPa | 2.742 mPa·s
268.01 K, 275300 kPa | 3.073 mPa·s
268.01 K, 301000 kPa | 3.447 mPa·s
268.01 K, 325300 kPa | 3.833 mPa·s
268.01 K, 351200 kPa | 4.283 mPa·s
268.01 K, 378000 kPa | 4.766 mPa·s
273.15 K, 100 kPa | 0.5601 mPa·s and 0.561 mPa·s
273.15 K, 3100 kPa | 0.5756 mPa·s
273.15 K, 5600 kPa | 0.5886 mPa·s
273.15 K, 8100 kPa | 0.6022 mPa·s
273.15 K, 10600 kPa | 0.6155 mPa·s
273.15 K, 25900 kPa | 0.6979 mPa·s
273.15 K, 50800 kPa | 0.8418 mPa·s
273.15 K, 75800 kPa | 0.9972 mPa·s
273.15 K, 100700 kPa | 1.166 mPa·s
273.15 K, 125500 kPa | 1.349 mPa·s
273.15 K, 150500 kPa | 1.55 mPa·s
273.15 K, 175500 kPa | 1.769 mPa·s
273.15 K, 200500 kPa | 2.006 mPa·s
273.15 K, 225300 kPa | 2.266 mPa·s
273.15 K, 250600 kPa | 2.552 mPa·s
273.15 K, 275800 kPa | 2.864 mPa·s
273.15 K, 300700 kPa | 3.198 mPa·s
